Data from PubChem BioAssay (NCI).
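Where inhibition never reached the appropriate level, the endpoint shown equals the highest concentration tested. Otherwise, values were interpolated linearly from a five-concentration, 48-hour dose response in 96-well plates. TGI marks complete inhibition of growth.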

Key:
Assay in all cases: inhibition of tumour cell growth, NCI panel, 48 h
[1] = tested on: SF-268 CNS
[2] = tested on: T-47D breast
[3] = tested on: IGROV1 ovarian
[4] = tested on: SF-295 CNS
[5] = tested on: UACC-62 melanoma
[6] = tested on: MOLT-4 leukemia
[7] = tested on: SK-MEL-5 melanoma
[8] = tested on: A549 NSCLC
[9] = tested on: HOP-62 NSCLC
[10] = tested on: SF-539 CNS
[11] = tested on: NCI-H522 lung
[12] = tested on: OVCAR-3 ovarian
[13] = tested on: NCI-H226 lung
[14] = tested on: KM20L2 colon
[15] = tested on: TK-10 renal
[16] = tested on: ACHN renal
[17] = tested on: UO-31 renal
[18] = tested on: CAKI-1 renal
[19] = tested on: SR leukemia
[20] = tested on: A498 renal
[21] = tested on: DU-145 prostate
[22] = tested on: MCF7 breast
[23] = tested on: SK-OV-3 ovarian
[24] = tested on: MALME-3M melanoma
[25] = tested on: SK-MEL-2 melanoma
[26] = tested on: OVCAR-5 ovarian
[27] = tested on: 786-0 renal
[28] = tested on: NCI-H460 lung
[29] = tested on: MDA-MB-231 breast
[30] = tested on: UACC-257 melanoma
[31] = tested on: DMS 273 small cell lung
[32] = tested on: OVCAR-8 ovarian
[33] = tested on: HCT-116 colon
[34] = tested on: KM12 colon
[35] = tested on: HL-60(TB) leukemia
[36] = tested on: SNB-78 CNS
[37] = tested on: RXF-631 renal
[38] = tested on: HT29 colon
[39] = tested on: HOP-92 NSCLC
[40] = tested on: SNB-19 CNS
[41] = tested on: RXF 393 renal
[42] = tested on: M14 melanoma
[43] = tested on: CCRF-CEM leukemia
[44] = tested on: EKVX NSCLC
[45] = tested on: M19-MEL melanoma
[46] = tested on: NCI-H23 lung
[47] = tested on: SK-MEL-28 melanoma
[48] = tested on: U251 CNS
[49] = tested on: DMS 114 small cell lung
[50] = tested on: LXFL 529 NSCLC
[51] = tested on: DLD-1 colon
[52] = tested on: HOP-18 NSCLC
[53] = tested on: HCC-2998 colon
[54] = tested on: SW-620 colon
[55] = tested on: LOX IMVI melanoma
[56] = tested on: K-562 leukemia
[57] = tested on: COLO 205 colon
[58] = tested on: SN12C renal
[59] = tested on: RPMI-8226 leukemia
[60] = tested on: SNB-75 CNS
[61] = tested on: HCT-15 colon
[62] = tested on: OVCAR-4 ovarian
[63] = tested on: XF 498 CNS

Measured: TGI

CCCCCC(=O)OC[n+]1ccc2c(C)c3[nH]c4ccc(OC)cc4c3c(C)c2c1
1.51 µM: [27]
3.03 µM: [23]
3.31 µM: [5] | [17]
1.17 µM: [10]
1.04 µM: [28]
2.24 µM: [26]
> 100 µM: [1] | [6] | [7] | [11] | [12] | [14] | [19] | [25]
13.7 µM: [8]
1830 nM: [29]
2.17 µM: [20]
9.74 µM: [15]
3.71 µM: [3]
4.78 µM: [16]
31 µM: [13]
2.28 µM: [9]
> 23 µM: [18]
3.19 µM: [21]
1.72 µM: [4]
1960 nM: [22]
13.1 µM: [2]
> 63.6 µM: [24]

NC(CCc1nc(-c2cccc([N+](=O)[O-])c2)cs1)C(=O)O (stereo not drawn)
> 100 µM: [30] | [3] | [4] | [31] | [32] | [33] | [5] | [34] | [6] | [8] | [9] | [35] | [36] | [37] | [38] | [11] | [39] | [14] | [40] | [15] | [16] | [17] | [41] | [42] | [43] | [19] | [20] | [44] | [23] | [45] | [46] | [26] | [47] | [48] | [28] | [49]

OC1CC(O)O[C@H](c2ccccc2)C1 (stereo partly drawn)
> 100 µM: [1] | [30] | [3] | [4] | [31] | [32] | [33] | [5] | [50] | [34] | [51] | [6] | [52] | [7] | [8] | [9] | [10] | [35] | [36] | [38] | [53] | [12] | [54] | [55] | [39] | [13] | [14] | [40] | [15] | [56] | [16] | [17] | [41] | [42] | [43] | [18] | [57] | [19] | [20] | [44] | [58] | [45] | [24] | [46] | [59] | [26] | [60] | [27] | [61] | [47] | [28] | [62]

COc1cc(C2C(C(=O)NCc3ccccc3)=C(C)NC(C)=C2C(=O)NCc2ccccc2)ccc1O
55.8 µM: [6]
83.2 µM: [48]
90.5 µM: [46]
66.5 µM: [35]
75.1 µM: [18]
89.2 µM: [39]
41 µM: [10]
51.6 µM: [53]
38 µM: [38]
77.8 µM: [41]
> 100 µM: [1] | [30] | [3] | [4] | [31] | [32] | [33] | [5] | [50] | [7] | [8] | [36] | [37] | [12] | [54] | [55] | [13] | [14] | [40] | [15] | [56] | [16] | [17] | [42] | [20] | [44] | [58] | [63] | [45] | [24] | [26] | [60] | [27] | [61] | [47] | [28] | [62] | [49]
98.3 µM: [43]
61.2 µM: [25]
73.6 µM: [59]
54.4 µM: [19]

COc1cc2ccnc(C#N)c2cc1OCc1ccccc1
66.3 µM: [60]
> 100 µM: [1] | [30] | [4] | [32] | [33] | [50] | [34] | [51] | [6] | [52] | [7] | [8] | [9] | [10] | [36] | [38] | [53] | [11] | [12] | [54] | [14] | [40] | [15] | [56] | [16] | [17] | [42] | [43] | [18] | [20] | [44] | [58] | [63] | [24] | [25] | [46] | [59] | [26] | [27] | [61] | [47] | [48] | [28] | [62]

C[C@@H](NC1CCCC[C@@H]1O)c1ccccc1 (stereo partly drawn)
> 100 µM: [30] | [3] | [4] | [31] | [32] | [33] | [5] | [50] | [34] | [51] | [6] | [52] | [7] | [8] | [9] | [35] | [36] | [38] | [53] | [12] | [54] | [55] | [39] | [13] | [14] | [40] | [15] | [56] | [16] | [17] | [41] | [42] | [43] | [18] | [57] | [44] | [58] | [63] | [23] | [45] | [24] | [25] | [59] | [26] | [60] | [27] | [61] | [47] | [48] | [28] | [62]

OC1(C(Sc2ccccc2)Sc2ccccc2)CCCCCC1
64.5 µM: [16]
53.5 µM: [23]
64.9 µM: [10] | [27]
60.5 µM: [61]
89.5 µM: [8]
85.2 µM: [20]
50.8 µM: [35]
76.5 µM: [31]
52.4 µM: [59]
77.3 µM: [43]
57.8 µM: [57]
75.5 µM: [28]
9.27 µM: [14]
16.6 µM: [17]
77.4 µM: [40]
> 100 µM: [1] | [32] | [34] | [51] | [6] | [36] | [54] | [15] | [45] | [46] | [60] | [47] | [62]
66.2 µM: [4] | [48]
74.9 µM: [18]
45.7 µM: [12]
63.5 µM: [44]
40.7 µM: [11]
68.9 µM: [49]
59.5 µM: [9]
67 µM: [19]
49.2 µM: [42]
40 µM: [55]
56.5 µM: [39]
38.5 µM: [58]
41.2 µM: [25]
28.5 µM: [5]
35.7 µM: [63]
29.6 µM: [7]
69.4 µM: [30]
72.3 µM: [33]

N#Cc1ccc(C2OCC3CC=CCC3CO2)cc1 (stereo not drawn)
> 100 µM: [1] | [30] | [3] | [4] | [32] | [33] | [5] | [50] | [34] | [51] | [6] | [52] | [8] | [9] | [10] | [36] | [37] | [38] | [53] | [11] | [12] | [54] | [55] | [13] | [14] | [40] | [56] | [16] | [17] | [41] | [42] | [43] | [18] | [57] | [19] | [44] | [58] | [63] | [23] | [45] | [24] | [25] | [46] | [59] | [26] | [60] | [27] | [61] | [47] | [48] | [28] | [62] | [49]
94.9 µM: [35]
49 µM: [7]
